These results are taken from the SangsterLogP compilation.

Molecules are shown by their SMILES.

One data set can be described thus: method code SF, from DOI: 10.1002/ps.2780140605.
The logP is the decadic logarithm of the partition coefficient of the neutral form, usually between octanol and water. A lower logP goes with a more hydrophilic compound. With `C#CCC(O)(CC#C)c1cccnc1`, the logP came out at 1.29. Compound `C#CCC(O)(c1cccnc1)C1CCCCC1` (stereo not drawn) registered a log partition coefficient (logP) of 2.09. The same measure, in the same setting: under `C#CCC(O)(c1ccc(F)cc1)c1cccnc1` (stereo not drawn) stands 1.78; under `C#CCC(O)(c1cccnc1)c1ccc(Cl)cc1Cl` (stereo not drawn), 2.29.

For `C#CCC(O)(c1cccnc1)c1ccc(Cl)c(Cl)c1` (stereo not drawn), the logP amounted to 2.42.

For `C#CCC(O)(c1ccc(C(C)C)cc1)c1cccnc1` (stereo not drawn), the logP is 2.16. Same read-out and setting: for `C#CCC(O)(c1cccnc1)c1ccc2ccccc2c1` (stereo not drawn) the value was 2.14.

Assay in another data set: not given
Regarding `C#CCC(O)c1cccnc1` (stereo not drawn), the logP stood at 1.21.
